Results taken from paper PMC9953717, “Novel Green Fluorescent Polyamines to Analyze ATP13A2 and ATP13A3 Activity in the Mammalian Polyamine Transport System” (Biomolecules, 2023).

Target: T1, human ATP13A3 WT (A3 WT-OE) (Homo sapiens, UniProt Q9H7F0)
T1 construct: compared with catalytically dead D498N
T1 sequence (Q9H7F0 1-1226): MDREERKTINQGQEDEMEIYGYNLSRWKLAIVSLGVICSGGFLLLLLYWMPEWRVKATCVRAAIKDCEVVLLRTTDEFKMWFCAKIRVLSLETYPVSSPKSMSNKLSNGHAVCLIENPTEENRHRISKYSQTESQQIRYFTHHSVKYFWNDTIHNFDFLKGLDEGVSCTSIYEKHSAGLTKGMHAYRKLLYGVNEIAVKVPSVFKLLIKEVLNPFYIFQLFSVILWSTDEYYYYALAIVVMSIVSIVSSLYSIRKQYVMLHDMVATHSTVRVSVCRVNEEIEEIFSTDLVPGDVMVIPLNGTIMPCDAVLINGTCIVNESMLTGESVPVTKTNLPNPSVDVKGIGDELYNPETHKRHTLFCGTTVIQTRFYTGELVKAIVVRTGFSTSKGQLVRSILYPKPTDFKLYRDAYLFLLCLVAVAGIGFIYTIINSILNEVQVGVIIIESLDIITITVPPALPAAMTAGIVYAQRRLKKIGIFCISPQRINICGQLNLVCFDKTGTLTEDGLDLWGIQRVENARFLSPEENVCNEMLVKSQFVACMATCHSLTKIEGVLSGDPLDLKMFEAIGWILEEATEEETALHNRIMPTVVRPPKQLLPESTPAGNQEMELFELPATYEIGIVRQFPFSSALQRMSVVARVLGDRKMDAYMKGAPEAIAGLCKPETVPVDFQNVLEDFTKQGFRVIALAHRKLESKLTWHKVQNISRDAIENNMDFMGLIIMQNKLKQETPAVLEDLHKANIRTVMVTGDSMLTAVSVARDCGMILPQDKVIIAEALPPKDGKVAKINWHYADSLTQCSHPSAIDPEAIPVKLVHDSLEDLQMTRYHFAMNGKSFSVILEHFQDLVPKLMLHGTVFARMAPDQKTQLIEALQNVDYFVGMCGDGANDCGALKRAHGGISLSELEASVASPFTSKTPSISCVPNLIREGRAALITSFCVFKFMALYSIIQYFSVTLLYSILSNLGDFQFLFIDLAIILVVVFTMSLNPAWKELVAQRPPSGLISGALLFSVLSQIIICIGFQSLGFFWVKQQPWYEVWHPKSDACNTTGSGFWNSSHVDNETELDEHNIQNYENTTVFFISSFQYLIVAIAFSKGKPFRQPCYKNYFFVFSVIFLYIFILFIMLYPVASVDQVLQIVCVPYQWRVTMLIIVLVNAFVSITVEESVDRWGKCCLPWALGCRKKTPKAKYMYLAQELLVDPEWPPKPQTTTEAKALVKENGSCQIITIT
Assay: radiolabeled uptake in HMEC-1 cells, WT versus D498N overexpression
Format: cell-based
Details: 30 min, 37 °C, labelled compound

Row | SMILES | fold uptake at 5 μM
1 | NCCCCN [14C-PUT] | 26 fold
2 | NCCCCNCCCN [14C-SPD] | 41 fold
